What was measured:
Type in all cases: cell-based
TRPV2 = molecular target: T1, TRPV2 (Homo sapiens, UniProt Q9Y5S1); experiment: Bulk calcium assay (Fluo-4) in HEK cells overexpressing TRPV2
T1 construct: host or cells: HEK TRex293
T1 sequence (Q9Y5S1 1-764): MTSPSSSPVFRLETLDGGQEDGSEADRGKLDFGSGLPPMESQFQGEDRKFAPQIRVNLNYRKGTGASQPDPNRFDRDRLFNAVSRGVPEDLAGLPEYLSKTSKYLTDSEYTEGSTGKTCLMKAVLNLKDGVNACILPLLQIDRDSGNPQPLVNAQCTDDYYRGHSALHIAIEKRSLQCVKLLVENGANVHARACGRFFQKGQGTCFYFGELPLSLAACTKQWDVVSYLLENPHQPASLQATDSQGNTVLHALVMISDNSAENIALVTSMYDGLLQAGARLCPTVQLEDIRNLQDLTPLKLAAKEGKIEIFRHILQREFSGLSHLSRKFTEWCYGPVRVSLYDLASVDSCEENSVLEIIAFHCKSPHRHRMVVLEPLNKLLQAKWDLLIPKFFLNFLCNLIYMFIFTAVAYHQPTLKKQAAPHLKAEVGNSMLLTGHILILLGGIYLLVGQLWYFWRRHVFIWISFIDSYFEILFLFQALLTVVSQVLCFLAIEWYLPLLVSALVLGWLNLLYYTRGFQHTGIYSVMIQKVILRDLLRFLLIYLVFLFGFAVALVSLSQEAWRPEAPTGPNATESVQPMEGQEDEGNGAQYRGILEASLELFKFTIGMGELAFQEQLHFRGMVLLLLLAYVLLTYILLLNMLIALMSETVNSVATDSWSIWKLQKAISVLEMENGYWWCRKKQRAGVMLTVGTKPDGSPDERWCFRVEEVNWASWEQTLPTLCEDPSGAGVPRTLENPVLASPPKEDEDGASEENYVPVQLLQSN
Experimental: (§1) HEK TRexTRPV1 were cultured in DMEM, 10% Fetal Bovine Serum, 2 mM Lglutamine, 10 μg/ml Blasticidin (Calbiochem, San Diego Calif.), 400 μg/ml Zeocin (InvivoGen, San Diego Calif.), where indicated transgene expression was induced using 1 μg/ml Tetracycline for 16-24 hrs. Unless otherwise indicated, basal expression of TRPV1 without induction was sufficient for these studies, and comparisons were made to untransfected HEK where needed. HEKTRex293 over-expressing human TRPV2, human TRPA1 and human TRPM8 were obtained from SB Drug Discovery (Glasgow, Scotland) and cultured as described above. The cannabinoids and terpenes were assayed in HEK cells that have been transfected with the TRPV1 ion channel protein. These cells are called HEK293-V1 cells.
(§2) Cells were washed and incubated with 0.2 micromolar Fluo-4 for 30 minutes at 37° C. in a standard modified Ringer's solution of the following composition (in mM): NaCl 145, KCl 2.8, CsCl 10, CaCl2 10, MgCl2 2, glucose 10, Hepes·NaOH 10, pH 7.4, 330 mOsm. Cells were transferred to 96-well plates at 50,000 cells/well and stimulated as indicated. Calcium signals were acquired using a Flexstation 3 (Molecular Devices, Sunnydale, USA). Data was analyzed using SoftMax® Pro 5 (Molecular Devices). Where indicated, nomically calcium-free external conditions were achieved by the preparation of 0 mM CaCl2 Ringer solution containing 1 mM EGTA.
(§3) Calcium responses mediated by TRPA1, TRPM8, TRPV2, and TRPV1 were tested by calcium assay in the cell culture system. Cells were washed and incubated with 0.2 μM fluo-4 acetoxymethyl ester (“Fluo-4”) for 30 minutes at 37° C. in a standard modified Ringer's solution of the following composition (in mM): NaCl 145, KCl 2.8, CsCl 10, CaCl2 10, MgCl2 2, glucose 10, Hepes·NaOH 10, pH 7.4, 330 mOsm. Cells were transferred to 96-well plates at 50,000 cells/well and stimulated with 10 μM myrcene diluted in DMSO. Vehicle (DMSO) was used as a negative control. Vehicle traces were subtracted from the myrcene traces for each cell line.
(§4) The potential for different cannabinoids to target specific TRP channels, or to co-target more than one channel type, are of potential therapeutic options for the treatment and management of pain. Comparison of the impacts of a variety of cannabinoid on overexpression systems for TRPV2, TRPM8, and TRPA1 were performed in a side-by-side fashion, under bulk calcium assays where the measurements with each trace representing averaged triplicates of 100,000 cells per sample. As shown in FIGS. 41-43 and summarized in Table 3, there are clear differences in responsiveness between cannabinoids at a single channel type than between channel types to a given cannabinoid.

TRPM8 = molecular target: T2, TRPM8 (Homo sapiens, UniProt Q7Z2W7); experiment: Bulk calcium assay (Fluo-4) in HEK cells overexpressing TRPM8
T2 construct: host or cells: HEK TRex293
Experimental: as §1, §2, §3, §4

TRPA1 = molecular target: T3, TRPA1 (Homo sapiens, UniProt O75762); experiment: Bulk calcium assay (Fluo-4) in HEK cells overexpressing TRPA1
T3 construct: host or cells: HEK TRex293
Experimental: as §1, §2, §3, §4

T3 sequence (O75762 whole entry): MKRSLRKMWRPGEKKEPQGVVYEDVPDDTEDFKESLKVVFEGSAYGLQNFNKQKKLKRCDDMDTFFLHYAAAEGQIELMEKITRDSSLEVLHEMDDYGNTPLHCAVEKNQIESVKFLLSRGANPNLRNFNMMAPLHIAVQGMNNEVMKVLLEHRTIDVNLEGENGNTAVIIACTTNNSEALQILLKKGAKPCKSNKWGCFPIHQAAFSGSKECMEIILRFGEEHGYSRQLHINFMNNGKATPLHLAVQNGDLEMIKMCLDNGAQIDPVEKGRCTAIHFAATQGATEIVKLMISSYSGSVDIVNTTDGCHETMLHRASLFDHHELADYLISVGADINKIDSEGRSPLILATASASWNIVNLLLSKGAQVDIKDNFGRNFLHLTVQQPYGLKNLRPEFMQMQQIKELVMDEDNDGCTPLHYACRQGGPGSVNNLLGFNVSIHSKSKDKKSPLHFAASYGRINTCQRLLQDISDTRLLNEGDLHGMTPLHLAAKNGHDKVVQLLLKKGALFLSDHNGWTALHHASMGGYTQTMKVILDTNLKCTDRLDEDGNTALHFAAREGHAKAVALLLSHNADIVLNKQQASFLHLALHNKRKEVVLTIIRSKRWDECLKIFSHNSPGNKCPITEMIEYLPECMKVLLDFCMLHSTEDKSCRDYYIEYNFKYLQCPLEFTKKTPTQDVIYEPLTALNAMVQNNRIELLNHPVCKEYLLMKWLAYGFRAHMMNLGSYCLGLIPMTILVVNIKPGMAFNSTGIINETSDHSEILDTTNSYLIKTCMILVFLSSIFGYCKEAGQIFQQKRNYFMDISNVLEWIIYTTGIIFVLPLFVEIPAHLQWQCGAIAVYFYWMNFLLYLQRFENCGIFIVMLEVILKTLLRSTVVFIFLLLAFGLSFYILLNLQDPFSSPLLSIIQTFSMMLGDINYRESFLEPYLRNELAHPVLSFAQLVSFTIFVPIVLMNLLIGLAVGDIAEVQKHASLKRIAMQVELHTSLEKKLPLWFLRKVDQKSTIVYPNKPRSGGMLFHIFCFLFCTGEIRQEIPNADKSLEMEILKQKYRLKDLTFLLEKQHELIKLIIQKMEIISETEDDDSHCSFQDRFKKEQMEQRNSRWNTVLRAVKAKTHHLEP
T2 sequence (Q7Z2W7 whole entry): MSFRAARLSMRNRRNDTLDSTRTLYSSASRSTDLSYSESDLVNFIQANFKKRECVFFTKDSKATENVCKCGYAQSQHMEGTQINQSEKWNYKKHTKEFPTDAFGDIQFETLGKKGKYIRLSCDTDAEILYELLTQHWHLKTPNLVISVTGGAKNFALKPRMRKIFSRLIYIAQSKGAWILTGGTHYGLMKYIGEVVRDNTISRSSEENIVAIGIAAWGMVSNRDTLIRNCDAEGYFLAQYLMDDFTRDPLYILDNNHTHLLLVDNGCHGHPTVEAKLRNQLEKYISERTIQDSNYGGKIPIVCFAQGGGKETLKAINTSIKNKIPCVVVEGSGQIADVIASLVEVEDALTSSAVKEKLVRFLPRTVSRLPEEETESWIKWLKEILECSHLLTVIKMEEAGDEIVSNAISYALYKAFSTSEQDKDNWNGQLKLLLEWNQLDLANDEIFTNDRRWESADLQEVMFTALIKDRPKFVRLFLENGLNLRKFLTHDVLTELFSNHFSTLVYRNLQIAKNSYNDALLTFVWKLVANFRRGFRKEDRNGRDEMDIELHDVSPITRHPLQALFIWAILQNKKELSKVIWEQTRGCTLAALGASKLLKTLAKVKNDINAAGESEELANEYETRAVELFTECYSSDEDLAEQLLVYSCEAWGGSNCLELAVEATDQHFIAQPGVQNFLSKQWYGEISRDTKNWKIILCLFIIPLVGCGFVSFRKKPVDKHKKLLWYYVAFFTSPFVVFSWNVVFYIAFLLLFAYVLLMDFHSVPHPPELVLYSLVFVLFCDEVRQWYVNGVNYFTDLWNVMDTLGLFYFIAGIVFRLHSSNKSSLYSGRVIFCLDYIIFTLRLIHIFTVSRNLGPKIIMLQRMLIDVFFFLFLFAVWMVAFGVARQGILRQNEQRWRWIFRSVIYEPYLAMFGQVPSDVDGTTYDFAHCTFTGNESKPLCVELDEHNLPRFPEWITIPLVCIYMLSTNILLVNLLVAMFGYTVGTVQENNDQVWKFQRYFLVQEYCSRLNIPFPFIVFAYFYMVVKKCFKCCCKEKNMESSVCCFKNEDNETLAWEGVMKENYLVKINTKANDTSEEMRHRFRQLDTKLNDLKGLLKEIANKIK

Row | SMILES | mean maximal Ca^2+ signal RFU achieved 0-180 s (SD), TRPV1 (TRPV2) | mean maximal Ca^2+ signal RFU achieved 0-180 s (SD), TRM8 (TRPM8) | mean maximal Ca^2+ signal RFU achieved 0-180 s (SD), TRPA1 (TRPA1)
1 | C=C(C)[C@@H]1CCC(C)=C[C@H]1c1c(O)cc(CCCCC)cc1O [CBD, Cannabidiol] | 12.53 (0.28) RFU | 1.12 (0.02) RFU | 1.28 (0.03) RFU
2 | C=C(C)[C@@H]1CCC(C)=C[C@H]1c1c(O)cc(CCC)cc1O [CBDV, Cannabidivarin] | 13.07 (0.03) RFU | 3.89 (0.05) RFU | 16.17 (2.68) RFU
3 | CCCCCc1cc(O)c(C/C=C(\C)CCC=C(C)C)c(O)c1 [CBG, Cannabigerol] | 2.19 (0.62) RFU | 2.25 (0.46) RFU | 10.22 (1.29) RFU
4 | CCCCCc1cc(O)c2c(c1)OC(C)(C)c1ccc(C)cc1-2 [CBN, Cannabinol] | 4.03 (0.64) RFU | 0.09 (0.01) RFU | 10.97 (0.4) RFU
